{"source": "ChEMBL document CHEMBL3763140", "about": "“Discovery of 5-aryl-1,3-dihydro-2H-imidazo[4,5-b]pyridin-2-ones as positive allosteric modulators of metabotropic glutamate subtype-2 (mGlu2) receptors with efficacy in a preclinical model of psychosis” (Bioorg Med Chem Lett, 2016)", "key": {"physchem": {"assay": "physchem", "conditions": "buffer, pH 7"}, "[1]": {"assay": "Total clearance in iv dosed Wistar Hannover rat administered as single dose measured up to 24 hrs", "format": "ADME, organism-based", "conditions": "in vivo"}, "[2]": {"assay": "Half life in iv dosed Wistar Hannover rat administered as single dose measured up to 24 hrs", "format": "ADME, organism-based", "conditions": "in vivo"}, "Rattus norvegicus": {"tested_on": "Rattus norvegicus", "assay": "Intrinsic clearance in iv dosed Wistar Hannover rat administered as single dose measured up to 24 hrs", "format": "ADME, organism-based", "conditions": "in vivo"}, "[3]": {"assay": "Oral bioavailability in Wistar Hannover rat at 10 mg/kg administered as single dose measured up to 24 hrs", "format": "ADME, organism-based", "conditions": "in vivo"}, "[4]": {"assay": "Total plasma concentration in PCP stimulated Sprague-Dawley rat hyperlocomotion model at 10 mg/kg, po after 2 hrs", "format": "ADME, organism-based"}, "[5]": {"assay": "Total plasma concentration in PCP stimulated Sprague-Dawley rat hyperlocomotion model at 30 mg/kg, po after 2 hrs", "format": "ADME, organism-based"}, "[6]": {"assay": "Total plasma concentration in PCP stimulated Sprague-Dawley rat hyperlocomotion model at 100 mg/kg, po after 2 hrs", "format": "ADME, organism-based"}, "[7]": {"assay": "Total plasma concentration in MK801 stimulated Sprague-Dawley rat hyperlocomotion model at 10 mg/kg, po after 2 hrs", "format": "ADME, organism-based"}, "[8]": {"assay": "Total plasma concentration in MK801 stimulated Sprague-Dawley rat hyperlocomotion model at 30 mg/kg, po after 2 hrs", "format": "ADME, organism-based"}, "[9]": {"assay": "Total plasma concentration in MK801 stimulated Sprague-Dawley rat hyperlocomotion model at 100 mg/kg, po after 2 hrs", "format": "ADME, organism-based"}, "Plasma [10]": {"tested_on": "Plasma", "assay": "Unbound plasma concentration in PCP stimulated Sprague-Dawley rat hyperlocomotion model at 10 mg/kg, po after 2 hrs", "format": "ADME, organism-based", "conditions": "in vivo"}, "Plasma [11]": {"tested_on": "Plasma", "assay": "Unbound plasma concentration in PCP stimulated Sprague-Dawley rat hyperlocomotion model at 30 mg/kg, po after 2 hrs", "format": "ADME, organism-based", "conditions": "in vivo"}, "Plasma [12]": {"tested_on": "Plasma", "assay": "Unbound plasma concentration in PCP stimulated Sprague-Dawley rat hyperlocomotion model at 100 mg/kg, po after 2 hrs", "format": "ADME, organism-based", "conditions": "in vivo"}, "Plasma [13]": {"tested_on": "Plasma", "assay": "Unbound plasma concentration in MK801 stimulated Sprague-Dawley rat hyperlocomotion model at 10 mg/kg, po after 2 hrs", "format": "ADME, organism-based", "conditions": "in vivo"}, "Plasma [14]": {"tested_on": "Plasma", "assay": "Unbound plasma concentration in MK801 stimulated Sprague-Dawley rat hyperlocomotion model at 30 mg/kg, po after 2 hrs", "format": "ADME, organism-based", "conditions": "in vivo"}, "Plasma [15]": {"tested_on": "Plasma", "assay": "Unbound plasma concentration in MK801 stimulated Sprague-Dawley rat hyperlocomotion model at 100 mg/kg, po after 2 hrs", "format": "ADME, organism-based", "conditions": "in vivo"}, "Cerebrospinal fluid [16]": {"tested_on": "Cerebrospinal fluid", "assay": "Drug uptake in cerebro spinal fluid of PCP stimulated Sprague-Dawley rat hyperlocomotion model at 10 mg/kg, po", "format": "ADME, organism-based", "conditions": "in vivo, read-out: Drug uptake"}, "Cerebrospinal fluid [17]": {"tested_on": "Cerebrospinal fluid", "assay": "Drug uptake in cerebro spinal fluid of PCP stimulated Sprague-Dawley rat hyperlocomotion model at 30 mg/kg, po", "format": "ADME, organism-based", "conditions": "in vivo, read-out: Drug uptake"}, "Cerebrospinal fluid [18]": {"tested_on": "Cerebrospinal fluid", "assay": "Drug uptake in cerebro spinal fluid of PCP stimulated Sprague-Dawley rat hyperlocomotion model at 100 mg/kg, po", "format": "ADME, organism-based", "conditions": "in vivo, read-out: Drug uptake"}, "Cerebrospinal fluid [19]": {"tested_on": "Cerebrospinal fluid", "assay": "Drug uptake in cerebro spinal fluid of MK801 stimulated Sprague-Dawley rat hyperlocomotion model at 10 mg/kg, po", "format": "ADME, organism-based", "conditions": "in vivo, read-out: Drug uptake"}, "Cerebrospinal fluid [20]": {"tested_on": "Cerebrospinal fluid", "assay": "Drug uptake in cerebro spinal fluid of MK801 stimulated Sprague-Dawley rat hyperlocomotion model at 30 mg/kg, po", "format": "ADME, organism-based", "conditions": "in vivo, read-out: Drug uptake"}, "Cerebrospinal fluid [21]": {"tested_on": "Cerebrospinal fluid", "assay": "Drug uptake in cerebro spinal fluid of MK801 stimulated Sprague-Dawley rat hyperlocomotion model at 100 mg/kg, po", "format": "ADME, organism-based", "conditions": "in vivo, read-out: Drug uptake"}, "MDR1a (P-glycoprotein)": {"tested_on": "MDR1a (P-glycoprotein)", "assay": "Apparent permeability across pig LLC-PK cells expressing human/rat MDR1a", "format": "ADME, cell-based, Sus scrofa", "conditions": "LLC-PK1"}, "in vivo": {"assay": "in vivo", "conditions": "Wistar Hannover, rat, 10 mg/kg"}}, "data": [{"compound": "Cn1c(=O)n(CC(C)(C)C)c2ccc(-c3ccc(S(C)(=O)=O)cc3)nc21", "values": [{"measurement": "solubility", "setting": "physchem", "value": 7, "unit": "µM"}]}, {"compound": "Cc1ccc(C(C)(C)O)cc1-c1ccc2c(n1)n(C)c(=O)n2CC(C)(C)C", "values": [{"measurement": "clearance", "setting": "[1]", "value": 42, "unit": "mL/min/kg"}, {"measurement": "half-life", "setting": "[2]", "value": 58.8, "unit": "min"}, {"measurement": "CL", "setting": "Rattus norvegicus", "value": 2800, "unit": "mL/min/kg"}, {"measurement": "bioavailability", "setting": "[3]", "value": 47, "unit": "%"}, {"measurement": "concentration at 2 h", "setting": "[4]", "value": 1800, "unit": "nM"}, {"measurement": "concentration at 2 h", "setting": "[5]", "value": 8500, "unit": "nM"}, {"measurement": "concentration at 2 h", "setting": "[6]", "value": 25000, "unit": "nM"}, {"measurement": "concentration at 2 h", "setting": "[7]", "value": 1400, "unit": "nM"}, {"measurement": "concentration at 2 h", "setting": "[8]", "value": 6700, "unit": "nM"}, {"measurement": "concentration at 2 h", "setting": "[9]", "value": 22000, "unit": "nM"}, {"measurement": "Cp(f)", "setting": "Plasma [10]", "value": 54000, "unit": "nM"}, {"measurement": "Cp(f)", "setting": "Plasma [11]", "value": 255000, "unit": "nM"}, {"measurement": "Cp(f)", "setting": "Plasma [12]", "value": 750000, "unit": "nM"}, {"measurement": "Cp(f)", "setting": "Plasma [13]", "value": 42000, "unit": "nM"}, {"measurement": "Cp(f)", "setting": "Plasma [14]", "value": 201000, "unit": "nM"}, {"measurement": "Cp(f)", "setting": "Plasma [15]", "value": 660000, "unit": "nM"}, {"measurement": "concentration", "setting": "Cerebrospinal fluid [16]", "value": 26, "unit": "nM"}, {"measurement": "concentration", "setting": "Cerebrospinal fluid [17]", "value": 399, "unit": "nM"}, {"measurement": "concentration", "setting": "Cerebrospinal fluid [18]", "value": 906, "unit": "nM"}, {"measurement": "concentration", "setting": "Cerebrospinal fluid [19]", "value": 21, "unit": "nM"}, {"measurement": "concentration", "setting": "Cerebrospinal fluid [20]", "value": 211, "unit": "nM"}, {"measurement": "concentration", "setting": "Cerebrospinal fluid [21]", "value": 711, "unit": "nM"}, {"measurement": "Papp", "setting": "MDR1a (P-glycoprotein)", "value": 31, "unit": "×10⁻⁶ cm/s"}, {"measurement": "Cmax at 24 h", "setting": "in vivo", "value": 1500, "unit": "nM"}, {"measurement": "solubility", "setting": "physchem", "value": 147, "unit": "µM"}]}]}
